These results are taken from patent US11395798B2, “O/W type emulsion” (NOF CORPORATION, priority 2015, dated 2022).

Series [1] can be described thus: retentivity in blood test, 4 MU-Pal versus 4 MU-CHEMS. Conditions: B-2:DOPC:Chol emulsion, tail vein, ICR mouse; comparison with 4 MU-Pal. It counts as in vivo. How it is done: To a lipid mixture of B-2:DOPC:Chol=3:4:3 were added DSG-PEG2000 (9 mol %) and 30 mol % 4 MU-Pal, and 1 mol % fluorescent dye DiD was added to give an emulsion by a method similar to that in Example 1.
To a lipid mixture of B-2:DOPC:Chol:4 MU-CHEMS=3:4:1.5:1.5 was added DSG-PEG2000 (15 mol %), fluorescent dye DiD (1 mol %) was further added, and an emulsion was prepared by a method similar to that in Example 1.
The concentration of the particle suspension was set to 4 mM as a lipid concentration (B-2+DOPC+Chol). The suspension (250 μL) was administered to ICR mouse J 4-week-old from the tail vein. Blood (25 μL) was collected at each time point and mixed with pH 10.4 borate buffer (275 μL), ethanol (150 μL), 10% SDS (50 μL). 4 MU-Pal or 4 MU-CHEMS was hydrolyzed by incubation at 60° C. for 30 min. The fluorescence of the resulting 4-methylumbelliferone, and DiD modified by particles was each measured by a plate reader and the residual amount in the blood was examined from the analytical curve.

Series [2] in a line: influence of concentration of PEG lipid on retentivity in blood. To be noted: B-2/DOPC/Chol=3/4/3, 10 mol % DMG-PEG2000, 3-9 mol % DSG-PEG2000, 10 mol % Dex-CHEMS; mouse tail vein; almost equal for 6 and 9 mol %. It counts as in vivo. As for the experimental part: An emulsion having a composition of B-2/DOPC/Chol=3/4/3+10 mol % DMG-PEG2000+3-9 mol % DSG-PEG2000+10 mol % Dex-CHEMS was prepared in the same manner as in Example 1. An emulsion having each PEG amount was administered from the mouse tail vein, plasma was collected 1 min, 1 hr, 6 hr and 24 hr later, extracted with an organic solvent, and Dex-CHEMS concentration was calculated by HPLC. Along with an increase in DSG-PEG2000, the retentivity in blood was improved to become almost equal for DSG-PEG2000 6 mol % and 9 mol %.

A short description of series [3]: retentivity in blood of Dex-CHEMS / Dex-Pal emulsions (HPLC of plasma). Further details: species or system ICR mouse. Conditions: mouse, in vivo, iv. How it is done: When the lipid composition was 3 mM B-2/DOPC/Chol=3/4/3+10 mol % Dex-CHEMS+10 mol % DMG-PEG2000+10 mol % DSG-PEG2000 (1000 μL), a lipid solution was mixed in vitro as follows.
The solvent was evaporated once and the residue was redissolved in 100 μL CHCl3. N2 gas was blown to form a lipid thin film on the wall of a test tube. After a few hours of a vacuum treatment by a desiccator, 20 mM Maric acid buffer (30 mM NaCl, pH 3.0, 1000 μL) was added, and the mixture was incubated for 10 min at room temperature. After sonication with a bath-type sonicator for 30 sec, the mixture was sonicated by a probe-type sonicator for 5 min (output power: 30%). After centrifugation at 4° C., 15000 g for 5 min, the supernatant was collected. Neutralization was performed by adding an equal amount of 36 mM NaOH/PBS.
An emulsion composed of Dex-CHEMS and B-2 was administered to ICR mouse (4 w ♂) at 25 μg Dex-CHEMS/mouse. […]
Plasma (16.5 μL) centrifuged at 4° C., 1000 g for 10 min was transferred to another 1.5 mL tube. […] Using HPLC, the peak area of Dex-CHEMS and the peak area of 4 MU-Pal were calculated. The peak area of 0.5, 0.25, 0.125, 0.0625 nmol Dex-CHEMS was calculated by a similar method using HPLC and used as an analytical curve. […]
The residual rate in blood at 1 hr later was calculated with that 1 min after the administration as 100%.

Regarding `Cc1cc(=O)oc2cc(OC(=O)CCC(=O)OC3CCC4(C)C(=CCC5C4CCC4(C)C(C(C)CCCC(C)C)CCC54)C3)ccc12` (stereo not drawn) [4 MU-CHEMS, 4-methylumbelliferone cholesterol hemisuccinate], the retentivity in blood entry in series [1] was “stayed longer in the blood than 4 MU-Pal”.
As for `CC(C)CCC[C@@H](C)[C@H]1CC[C@H]2C3CC=C4C[C@@H](OC(=O)CCC(=O)OCC(=O)[C@]5(O)[C@@H](C)C[C@@H]6[C@H]7CCC8=CC(=O)C=C[C@@]8(C)[C@]7(F)C(O)C[C@]65C)CC[C@]4(C)[C@H]3CC[C@]12C` (stereo partly drawn) [Dex-CHEMS, dexamethasone cholesterol hemisuccinate], in series [2], the “retentivity in blood along with an increase in DSG-PEG2000” value is on record as “improved”. Moreover, the “residual in blood at 1 hr (1 min after administration as 100%)” value in series [3] is recorded as “continuously remained”.
